In patent US8063048B2, “Acetylenyl-pyrazolo-pyrimidine derivatives” (Hoffmann-La Roche Inc., priority 2005, dated 2011):

SMILES	melting point [°C]
Cc1cc(C#Cc2cnn3c(C(F)(F)F)cc(-c4ccc(C(F)(F)F)cc4)nc23)ccn1 [Example 2, 3-(2-Methyl-pyridin-4-ylethynyl)-7-trifluoromethyl-5-(4-trifluoromethyl-phenyl)-pyrazolo[1,5-a]pyrimidine]	206
CC(C)(CO)NS(=O)(=O)c1cccc(C#Cc2cnn3c(C(F)(F)F)cc(-c4ccc(C(F)(F)F)cc4)nc23)c1 [Example 4, N-(2-Hydroxy-1,1-dimethyl-ethyl)-3-[7-trifluoromethyl-5-(4-trifluoromethyl-phenyl)-pyrazolo[1,5-a]pyrimidin-3-ylethynyl]-benzenesulfonamide]	201 to 204
NS(=O)(=O)c1cncc(C#Cc2cnn3c(C(F)(F)F)cc(-c4ccc(C(F)(F)F)cc4)nc23)c1 [Example 5, 5-[7-Trifluoromethyl-5-(4-trifluoromethyl-phenyl)-pyrazolo[1,5-a]pyrimidin-3-ylethynyl]-pyridine-3-sulfonic acid amide]	239 to 240
Cc1ccc(C#Cc2cnn3c(C(F)(F)F)cc(-c4ccc(C(F)(F)F)cc4)nc23)cn1 [Example 9, 3-(6-Methyl-pyridin-3-ylethynyl)-7-trifluoromethyl-5-(4-trifluoromethyl-phenyl)-pyrazolo[1,5-a]pyrimidine]	195
FC(F)(F)c1ccc(-c2cc(C(F)(F)F)n3ncc(C#Cc4ccc(C5CC5)nc4)c3n2)cc1 [Example 10, 3-(2-Cyclopropyl-pyridin-5-ylethynyl)-7-trifluoromethyl-5-(4-trifluoromethyl-phenyl)-pyrazolo[1,5-a]pyrimidine]	138 to 140
CC(C)(CO)NS(=O)(=O)c1cncc(C#Cc2cnn3c(C(F)(F)F)cc(-c4ccc(C(F)(F)F)cc4)nc23)c1 [Example 11, 5-[7-Trifluoromethyl-5-(4-trifluoromethyl-phenyl)-pyrazolo[1,5-a]pyrimidin-3-ylethynyl]-pyridine-3-sulfonic acid (2-hydroxy-1,1-dimethyl-ethyl)-amide]	226 to 227
Cc1ncccc1C#Cc1cnn2c(C(F)(F)F)cc(-c3ccc(C(F)(F)F)cc3)nc12 [Example 12, 3-(2-Methyl-pyridin-3-ylethynyl)-7-trifluoromethyl-5-(4-trifluoromethyl-phenyl)-pyrazolo[1,5-a]pyrimidine]	198
O=S(=O)(c1cncc(C#Cc2cnn3c(C(F)(F)F)cc(-c4ccc(C(F)(F)F)cc4)nc23)c1)N(CCO)CCO [Example 13, 5-[7-Trifluoromethyl-5-(4-trifluoromethyl-phenyl)-pyrazolo[1,5-a]pyrimidin-3-ylethynyl]-pyridine-3-sulfonic acid bis-(2-hydroxy-ethyl)-amide]	173 to 178
O=S(=O)(O)c1cnc(C#Cc2cnn3c(C(F)(F)F)cc(-c4ccc(C(F)(F)F)cc4)nc23)s1 [Example 20, 2-[7-Trifluoromethyl-5-(4-trifluoromethyl-phenyl)-pyrazolo[1,5-a]pyrimidin-3-ylethynyl]-thiazole-5-sulfonic acid]	> 295
O=S(=O)(NC(CO)(CO)CO)c1cncc(C#Cc2cnn3c(C(F)(F)F)cc(-c4ccc(C(F)(F)F)cc4)nc23)c1 [Example 22, 5-[7-Trifluoromethyl-5-(4-trifluoromethyl-phenyl)-pyrazolo[1,5-a]pyrimidin-3-ylethynyl]-pyridine-3-sulfonic acid (2-hydroxy-1,1-bis-hydroxymethyl-ethyl)-amide]	230 to 232
CC(C)(CO)NS(=O)(=O)c1cnc(C#Cc2cnn3c(C(F)(F)F)cc(-c4ccc(C(F)(F)F)cc4)nc23)s1 [Example 23, 2-[7-Trifluoromethyl-5-(4-trifluoromethyl-phenyl)-pyrazolo[1,5-a]pyrimidin-3-ylethynyl]-thiazole-5-sulfonic acid (2-hydroxy-1,1-dimethyl-ethyl)-amide]	252 to 253
CC(C)(C)NS(=O)(=O)c1cccc(C#Cc2cnn3c(C(F)(F)F)cc(-c4ccc(C(F)(F)F)cc4)nc23)c1 [Example 24, N-tert-Butyl-3-[7-trifluoromethyl-5-(4-trifluoromethyl-phenyl)-pyrazolo[1,5-a]pyrimidin-3-ylethynyl]-benzenesulfonamide]	192 to 200
COc1ncc(S(=O)(=O)NC(C)(CO)CO)cc1C#Cc1cnn2c(C(F)(F)F)cc(-c3ccc(C(F)(F)F)cc3)nc12 [Example 25, 6-Methoxy-5-[7-trifluoromethyl-5-(4-trifluoromethyl-phenyl)-pyrazolo[1,5-a]pyrimidin-3-ylethynyl]-pyridine-3-sulfonic acid (2-hydroxy-1-hydroxymethyl-1-methyl-ethyl)-amide]	233 to 235
CC(CO)NS(=O)(=O)c1cncc(C#Cc2cnn3c(C(F)(F)F)cc(-c4ccc(C(F)(F)F)cc4)nc23)c1 (centres unmarked) [Example 28, 5-[7-Trifluoromethyl-5-(4-trifluoromethyl-phenyl)-pyrazolo[1,5-a]pyrimidin-3-ylethynyl]-pyridine-3-sulfonic acid (2-hydroxy-1-methyl-ethyl)-amide]	225 to 226
NS(=O)(=O)c1cnc(C#Cc2cnn3c(C(F)(F)F)cc(-c4ccc(C(F)(F)F)cc4)nc23)s1 [Example 29, 2-[7-Trifluoromethyl-5-(4-trifluoromethyl-phenyl)-pyrazolo[1,5-a]pyrimidin-3-ylethynyl]-thiazole-5-sulfonic acid amide]	235
NS(=O)(=O)c1cncc(C#Cc2cnn3c(C(F)F)cc(-c4ccc(C(F)(F)F)cc4)nc23)c1 [Example 30, 5-[7-Difluoromethyl-5-(4-trifluoromethyl-phenyl)-pyrazolo[1,5-a]pyrimidin-3-ylethynyl]-pyridine-3-sulfonic acid amide]	238
NS(=O)(=O)c1cc(C#Cc2cnn3c(C(F)F)cc(-c4ccc(C(F)(F)F)cc4)nc23)c(F)cc1F [Example 31, 5-[7-Difluoromethyl-5-(4-trifluoromethyl-phenyl)-pyrazolo[1,5-a]pyrimidin-3-ylethynyl]-2,4-difluoro-benzenesulfonamide]	256 to 258
CC(C)(CO)NS(=O)(=O)c1cccc(C#Cc2cnn3c(C(F)F)cc(-c4ccc(C(F)(F)F)cc4)nc23)c1 [Example 32, 3-[7-Difluoromethyl-5-(4-trifluoromethyl-phenyl)-pyrazolo[1,5-a]pyrimidin-3-ylethynyl]-N-(2-hydroxy-1,1-dimethyl-ethyl)-benzenesulfonamide]	161 to 162

Results, then the compound that gave them:

melting point [°C]	SMILES
187 to 188	FC(F)(F)c1ccc(-c2cc(C(F)(F)F)n3ncc(C#Cc4cccnc4)c3n2)cc1 [Example 3, 3-Pyridin-3-ylethynyl-7-trifluoromethyl-5-(4-trifluoromethyl-phenyl)-pyrazolo[1,5-a]pyrimidine]
158 to 159	FC(F)(F)c1ccc(-c2cc(C(F)(F)F)n3ncc(C#Cc4ccccn4)c3n2)cc1 [Example 6, 3-Pyridin-2-ylethynyl-7-trifluoromethyl-5-(4-trifluoromethyl-phenyl)-pyrazolo[1,5-a]pyrimidine]
252 to 256	FC(F)(F)c1ccc(-c2cc(C(F)(F)F)n3ncc(C#Cc4ccncc4)c3n2)cc1 [Example 7, 3-Pyridin-4-ylethynyl-7-trifluoromethyl-5-(4-trifluoromethyl-phenyl)-pyrazolo[1,5-a]pyrimidine]
202	FC(F)(F)c1ccc(-c2cc(C(F)(F)F)n3ncc(C#Cc4cccnc4C4CC4)c3n2)cc1 [Example 8, 3-(2-Cyclopropyl-pyridin-3-ylethynyl)-7-trifluoromethyl-5-(4-trifluoromethyl-phenyl)-pyrazolo[1,5-a]pyrimidine]
228 to 231	CC(CO)(CO)NS(=O)(=O)c1cncc(C#Cc2cnn3c(C(F)(F)F)cc(-c4ccc(C(F)(F)F)cc4)nc23)c1 [Example 14, 5-[7-Trifluoromethyl-5-(4-trifluoromethyl-phenyl)-pyrazolo[1,5-a]pyrimidin-3-ylethynyl]-pyridine-3-sulfonic acid (2-hydroxy-1-hydroxymethyl-1-methyl-ethyl)-amide]
285 to 287	NC(=O)c1cncc(C#Cc2cnn3c(C(F)(F)F)cc(-c4ccc(C(F)(F)F)cc4)nc23)c1 [Example 15, 5-[7-Trifluoromethyl-5-(4-trifluoromethyl-phenyl)-pyrazolo[1,5-a]pyrimidin-3-ylethynyl]-nicotinamide]
224	CC(C)(C)NS(=O)(=O)c1cncc(C#Cc2cnn3c(C(F)(F)F)cc(-c4ccc(C(F)(F)F)cc4)nc23)c1 [Example 17, 5-[7-Trifluoromethyl-5-(4-trifluoromethyl-phenyl)-pyrazolo[1,5-a]pyrimidin-3-ylethynyl]-pyridine-3-sulfonic acid tert-butylamide]
209 to 210	COc1ncc(S(=O)(=O)NC(C)(C)CO)cc1C#Cc1cnn2c(C(F)(F)F)cc(-c3ccc(C(F)(F)F)cc3)nc12 [Example 18, 6-Methoxy-5-[7-trifluoromethyl-5-(4-trifluoromethyl-phenyl)-pyrazolo[1,5-a]pyrimidin-3-ylethynyl]-pyridine-3-sulfonic acid (2-hydroxy-1,1-dimethyl-ethyl)-amide]
214 to 215	FC(F)(F)c1cc(-c2ccc(Cl)cc2)nc2c(C#Cc3cccnc3)cnn12 [Example 21, 5-(4-Chloro-phenyl)-3-pyridin-3-ylethynyl-7-trifluoromethyl-pyrazolo[1,5-a]pyrimidine]
204 to 206	CC(CO)(CO)NS(=O)(=O)c1cncc(C#Cc2cnn3c(C(F)F)cc(-c4ccc(C(F)(F)F)cc4)nc23)c1 [Example 26, 5-[7-Difluoromethyl-5-(4-trifluoromethyl-phenyl)-pyrazolo[1,5-a]pyrimidin-3-ylethynyl]-pyridine-3-sulfonic acid (2-hydroxy-1-hydroxymethyl-1-methyl-ethyl)-amide]
200 to 201	CC(C)(CO)NS(=O)(=O)c1cncc(C#Cc2cnn3c(C(F)F)cc(-c4ccc(C(F)(F)F)cc4)nc23)c1 [Example 27, 5-[7-Difluoromethyl-5-(4-trifluoromethyl-phenyl)-pyrazolo[1,5-a]pyrimidin-3-ylethynyl]-pyridine-3-sulfonic acid (2-hydroxy-1,1-dimethyl-ethyl)-amide]
